Measured values as given in PMC4020173 (Bioorganic & medicinal chemistry, 2014).
“Also recorded” adds a separate entry of the source.

Assays:
[1] = system: MDA-MB-436 human breast cancer xenograft tumors; test: MicroPET imaging with [^18F]12 in MDA-MB-436 tumor-bearing mice; type: in vivo; details: MDA-MB-436 tumors in mice; olaparib 50 mg/kg i.p. or 12 1 mg/kg i.p., 20 min prior to tracer injection
MDA-MB-231 tumors = test: MicroPET imaging with [^18F]12 in MDA-MB-231 tumor-bearing mice; type: in vivo; details: MDA-MB-231 tumor in mice; olaparib i.p. 50 mg/kg 20 min pretreatment; time-radioactivity curves

| Structure (SMILES) | Effect of pretreatment on [^18F]12 uptake in tumor (blocking) [1] | Effect of pretreatment on [^18F]12 uptake in tumor (blocking) (MDA-MB-231 tumors) |
| --- | --- | --- |
| O=C1NCCn2c(-c3ccc(OCCF)cc3)nc3cccc1c32 [Compound 12, 5,6-Dihydro-2-(4-(2-fluoroethoxy)phenyl)-imidazo[4,5,1-jk][1,4]benzodiazepin-7(4H)-ones] | decreased [^18F]12 uptake in the tumors to the background tissue activity levels; also recorded: blocked |  |
| O=C(c1cc(Cc2n[nH]c(=O)c3ccccc23)ccc1F)N1CCN(C(=O)C2CC2)CC1 [olaparib] | blocked; also recorded: decreased [^18F]12 uptake in the tumors to the background tissue activity levels | decreased [^18F]12 uptake |
